Reference: ChEMBL document CHEMBL5696442, “Discovery of type II inhibitors of TGFβ-activated kinase 1 (TAK1) and mitogen-activated protein kinase kinase kinase kinase 2 (MAP4K2)” (J Med Chem, 2015)
Calls of active or inactive are those of the source. No cut-off for these calls is given here.

Legend:
[1] = molecular target: Calcium/calmodulin-dependent protein kinase type II subunit gamma (Homo sapiens) (UniProt Q13555); assay: Inhibition of CAMK2G (unknown origin) at 10 uM by Ambit Kinomescan binding assay
[2] = molecular target: Myosin-IIIa (Homo sapiens) (UniProt Q8NEV4); assay: Inhibition of MYO3A (unknown origin) at 10 uM by Ambit Kinomescan binding assay relative to control
[3] = molecular target: Cyclin-dependent kinase 14 (Homo sapiens) (UniProt O94921); assay: Inhibition of PFTK1 (unknown origin) at 10 uM by Ambit Kinomescan binding assay relative to control
[4] = molecular target: T1, Scaffold protein ILK (Homo sapiens) (UniProt Q13418); assay: Inhibition of ILK Protein Kinase Domain in human A-375 cells at 0.5 uM by KiNativ Profiling analysis relative to control; format: cell-based
T1 sequence (whole entry): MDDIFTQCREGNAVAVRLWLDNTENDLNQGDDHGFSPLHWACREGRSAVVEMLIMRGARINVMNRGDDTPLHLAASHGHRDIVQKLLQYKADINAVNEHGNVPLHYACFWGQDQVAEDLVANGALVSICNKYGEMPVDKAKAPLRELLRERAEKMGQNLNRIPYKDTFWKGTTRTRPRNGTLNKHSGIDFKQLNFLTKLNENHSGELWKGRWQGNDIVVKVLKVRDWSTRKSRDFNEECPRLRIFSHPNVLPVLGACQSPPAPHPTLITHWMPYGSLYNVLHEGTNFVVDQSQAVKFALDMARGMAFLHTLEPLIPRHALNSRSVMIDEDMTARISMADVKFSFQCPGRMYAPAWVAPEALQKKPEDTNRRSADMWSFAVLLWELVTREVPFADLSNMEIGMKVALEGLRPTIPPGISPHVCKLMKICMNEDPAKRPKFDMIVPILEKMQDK

[5] = Inhibition of KHS1 Lys2 labeling site harbouring DIKGANILLTDHGDVK in human Huh-7 cell lysate at 1 uM by KiNativ Profiling analysis relative to control; settings: condition cancer
[6] = molecular target: Serine/threonine-protein kinase Nek6 (Homo sapiens) (UniProt Q9HC98); assay: Inhibition of NEK6 Lys2 labeling site harbouring VMHRDIKPANVFITATGVVK in human Huh-7 cell lysate at 1 uM by KiNativ Profiling analysis relative to control; format: subcellular
[7] = molecular target: Phosphatidylinositol 4-phosphate 3-kinase C2 domain-containing subunit beta (Homo sapiens) (UniProt O00750); assay: Inhibition of PIK3C2B ATP labeling site in human Huh-7 cell lysate at 1 uM by KiNativ Profiling analysis relative to control; format: subcellular
Phosphatidylinositol 4-phosphate 3-kinase C2 domain-containing subunit beta (Homo sapiens), sequence (O00750 whole entry, the tested form may be a part): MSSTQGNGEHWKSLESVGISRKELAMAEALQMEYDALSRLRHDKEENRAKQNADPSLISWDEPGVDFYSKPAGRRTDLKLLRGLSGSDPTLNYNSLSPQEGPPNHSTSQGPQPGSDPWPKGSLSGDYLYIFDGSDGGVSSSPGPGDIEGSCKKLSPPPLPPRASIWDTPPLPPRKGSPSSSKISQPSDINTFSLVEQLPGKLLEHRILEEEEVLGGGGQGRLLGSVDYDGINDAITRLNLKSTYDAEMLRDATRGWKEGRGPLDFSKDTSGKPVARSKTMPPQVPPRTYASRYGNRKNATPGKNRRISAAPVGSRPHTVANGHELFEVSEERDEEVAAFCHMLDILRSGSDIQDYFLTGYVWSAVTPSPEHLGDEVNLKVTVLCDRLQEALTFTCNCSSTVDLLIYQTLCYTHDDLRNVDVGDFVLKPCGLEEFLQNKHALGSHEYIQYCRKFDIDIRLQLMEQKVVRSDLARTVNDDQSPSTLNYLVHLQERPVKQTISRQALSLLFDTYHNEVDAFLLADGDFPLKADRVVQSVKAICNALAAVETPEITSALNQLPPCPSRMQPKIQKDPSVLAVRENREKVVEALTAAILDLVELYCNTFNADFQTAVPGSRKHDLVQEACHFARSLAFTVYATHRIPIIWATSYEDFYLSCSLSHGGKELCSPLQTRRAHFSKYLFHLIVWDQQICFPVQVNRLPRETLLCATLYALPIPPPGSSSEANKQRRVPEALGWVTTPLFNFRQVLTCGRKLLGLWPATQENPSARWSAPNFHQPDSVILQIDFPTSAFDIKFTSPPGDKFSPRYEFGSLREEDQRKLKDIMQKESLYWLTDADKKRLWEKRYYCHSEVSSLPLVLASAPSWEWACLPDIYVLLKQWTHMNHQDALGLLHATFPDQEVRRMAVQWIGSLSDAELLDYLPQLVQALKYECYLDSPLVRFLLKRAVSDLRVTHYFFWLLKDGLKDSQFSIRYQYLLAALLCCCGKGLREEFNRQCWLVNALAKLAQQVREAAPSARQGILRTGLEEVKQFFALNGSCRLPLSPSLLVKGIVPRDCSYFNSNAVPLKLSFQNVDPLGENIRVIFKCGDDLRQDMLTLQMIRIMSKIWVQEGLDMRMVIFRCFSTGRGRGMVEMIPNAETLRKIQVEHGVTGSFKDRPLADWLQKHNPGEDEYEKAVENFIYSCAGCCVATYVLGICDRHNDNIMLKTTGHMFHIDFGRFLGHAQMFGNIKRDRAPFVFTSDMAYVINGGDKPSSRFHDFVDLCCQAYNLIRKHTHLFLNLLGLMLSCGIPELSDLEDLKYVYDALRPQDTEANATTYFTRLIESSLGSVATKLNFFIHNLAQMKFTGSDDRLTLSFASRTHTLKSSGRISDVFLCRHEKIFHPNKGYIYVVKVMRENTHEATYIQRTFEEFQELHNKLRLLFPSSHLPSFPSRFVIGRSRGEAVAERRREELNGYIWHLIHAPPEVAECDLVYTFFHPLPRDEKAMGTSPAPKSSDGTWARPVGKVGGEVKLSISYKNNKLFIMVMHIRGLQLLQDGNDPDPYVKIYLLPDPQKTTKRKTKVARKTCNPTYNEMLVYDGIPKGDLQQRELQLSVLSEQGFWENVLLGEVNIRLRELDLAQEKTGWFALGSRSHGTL

[8] = molecular target: Mitogen-activated protein kinase 14 (Homo sapiens, UniProt Q16539); assay: Inhibition of p38alpha Lys2 labeling site in human Huh-7 cells at 1 uM by KiNativ Profiling analysis relative to control; format: cell-based
Mitogen-activated protein kinase 14, sequence (Q16539 whole entry): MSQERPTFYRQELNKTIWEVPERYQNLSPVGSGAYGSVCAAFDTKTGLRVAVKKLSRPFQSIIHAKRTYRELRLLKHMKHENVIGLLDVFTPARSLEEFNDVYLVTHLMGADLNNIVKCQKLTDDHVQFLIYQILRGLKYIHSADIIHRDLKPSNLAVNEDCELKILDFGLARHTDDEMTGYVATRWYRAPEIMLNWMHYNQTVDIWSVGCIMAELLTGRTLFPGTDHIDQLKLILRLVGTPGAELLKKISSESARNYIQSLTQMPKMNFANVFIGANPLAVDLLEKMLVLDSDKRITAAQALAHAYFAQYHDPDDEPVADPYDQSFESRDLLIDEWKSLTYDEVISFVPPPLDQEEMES

[9] = molecular target: Rho-associated protein kinase 1 (Homo sapiens) (UniProt Q13464); assay: Inhibition of ROCK1 Lys2 labeling site in human Huh-7 cells at 1 uM by KiNativ Profiling analysis relative to control; format: cell-based
Rho-associated protein kinase 1 (Homo sapiens), sequence (Q13464 2-1354 limits assumed): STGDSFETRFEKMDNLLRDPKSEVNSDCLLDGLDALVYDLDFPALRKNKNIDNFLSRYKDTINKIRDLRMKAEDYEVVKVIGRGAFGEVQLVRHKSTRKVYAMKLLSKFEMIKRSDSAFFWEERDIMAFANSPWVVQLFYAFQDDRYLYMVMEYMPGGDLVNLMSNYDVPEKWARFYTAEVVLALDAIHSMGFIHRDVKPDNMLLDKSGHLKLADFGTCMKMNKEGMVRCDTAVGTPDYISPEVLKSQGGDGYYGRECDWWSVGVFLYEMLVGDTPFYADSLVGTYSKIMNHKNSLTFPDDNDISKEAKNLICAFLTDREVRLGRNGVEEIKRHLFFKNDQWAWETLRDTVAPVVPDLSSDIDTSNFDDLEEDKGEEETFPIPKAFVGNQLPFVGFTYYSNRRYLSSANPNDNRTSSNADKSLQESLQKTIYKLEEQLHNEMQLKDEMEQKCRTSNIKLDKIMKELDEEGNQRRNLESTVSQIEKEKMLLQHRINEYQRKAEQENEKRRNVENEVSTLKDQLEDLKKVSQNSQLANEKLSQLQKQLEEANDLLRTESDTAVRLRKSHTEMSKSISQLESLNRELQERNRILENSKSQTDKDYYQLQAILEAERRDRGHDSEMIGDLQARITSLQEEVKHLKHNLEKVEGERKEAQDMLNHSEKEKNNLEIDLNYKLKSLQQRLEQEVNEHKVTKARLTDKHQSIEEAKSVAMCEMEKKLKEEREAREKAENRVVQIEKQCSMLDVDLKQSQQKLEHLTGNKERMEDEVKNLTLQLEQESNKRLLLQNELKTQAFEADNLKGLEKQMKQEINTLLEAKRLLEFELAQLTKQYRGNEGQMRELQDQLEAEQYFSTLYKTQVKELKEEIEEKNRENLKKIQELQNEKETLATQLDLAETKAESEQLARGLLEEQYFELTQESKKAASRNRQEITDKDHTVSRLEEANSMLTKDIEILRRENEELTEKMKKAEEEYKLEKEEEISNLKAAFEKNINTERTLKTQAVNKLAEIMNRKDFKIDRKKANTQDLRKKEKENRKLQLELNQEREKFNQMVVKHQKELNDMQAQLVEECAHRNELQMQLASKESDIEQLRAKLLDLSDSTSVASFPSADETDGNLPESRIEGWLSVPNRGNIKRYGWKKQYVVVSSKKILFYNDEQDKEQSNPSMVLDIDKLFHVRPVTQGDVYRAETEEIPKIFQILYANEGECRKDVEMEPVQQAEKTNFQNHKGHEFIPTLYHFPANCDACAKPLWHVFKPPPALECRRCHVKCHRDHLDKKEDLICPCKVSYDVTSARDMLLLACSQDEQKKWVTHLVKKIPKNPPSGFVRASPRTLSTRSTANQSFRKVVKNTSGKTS

[10] = molecular target: Mitogen-activated protein kinase 8 (Homo sapiens, UniProt P45983); assay: Inhibition of JNK1 (unknown origin) at 1 uM by Ambit Kinomescan binding assay relative to control
[11] = molecular target: Platelet-derived growth factor receptor beta (Homo sapiens) (UniProt P09619); assay: Inhibition of PDGFRB (unknown origin) at 1 uM by Ambit Kinomescan binding assay relative to control
Platelet-derived growth factor receptor beta (Homo sapiens), sequence (P09619 whole entry): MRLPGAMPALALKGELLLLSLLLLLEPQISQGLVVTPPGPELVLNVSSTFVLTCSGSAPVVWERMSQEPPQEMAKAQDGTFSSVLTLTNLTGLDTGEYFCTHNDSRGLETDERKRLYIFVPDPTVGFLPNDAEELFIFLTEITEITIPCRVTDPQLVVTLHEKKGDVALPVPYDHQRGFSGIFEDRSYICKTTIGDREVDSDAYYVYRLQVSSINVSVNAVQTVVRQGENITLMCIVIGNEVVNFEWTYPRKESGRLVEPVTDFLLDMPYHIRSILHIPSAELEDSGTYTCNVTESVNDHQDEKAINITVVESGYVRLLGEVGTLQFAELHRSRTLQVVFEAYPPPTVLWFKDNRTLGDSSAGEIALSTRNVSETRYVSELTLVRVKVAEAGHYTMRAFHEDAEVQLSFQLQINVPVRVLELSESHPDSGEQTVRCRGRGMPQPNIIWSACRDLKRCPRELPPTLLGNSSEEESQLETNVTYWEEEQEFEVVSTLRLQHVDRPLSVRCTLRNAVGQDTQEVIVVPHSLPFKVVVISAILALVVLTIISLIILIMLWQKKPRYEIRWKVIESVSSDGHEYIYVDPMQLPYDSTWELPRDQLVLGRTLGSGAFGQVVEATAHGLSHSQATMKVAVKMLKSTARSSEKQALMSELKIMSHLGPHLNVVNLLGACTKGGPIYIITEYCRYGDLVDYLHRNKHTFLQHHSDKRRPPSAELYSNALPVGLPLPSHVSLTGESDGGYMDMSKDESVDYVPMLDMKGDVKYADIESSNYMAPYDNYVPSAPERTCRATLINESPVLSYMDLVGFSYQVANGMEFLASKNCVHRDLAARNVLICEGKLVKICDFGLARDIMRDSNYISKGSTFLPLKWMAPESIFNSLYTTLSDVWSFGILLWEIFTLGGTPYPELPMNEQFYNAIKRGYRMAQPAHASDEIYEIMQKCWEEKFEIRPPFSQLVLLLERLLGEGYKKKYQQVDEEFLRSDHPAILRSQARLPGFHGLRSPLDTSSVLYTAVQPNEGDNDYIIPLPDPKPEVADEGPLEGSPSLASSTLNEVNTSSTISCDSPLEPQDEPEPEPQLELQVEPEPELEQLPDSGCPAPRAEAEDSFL

[12] = molecular target: Serine/threonine-protein kinase RIO3 (Homo sapiens) (UniProt O14730); assay: Inhibition of RIOK3 (unknown origin) at 1 uM by Ambit Kinomescan binding assay relative to control
Serine/threonine-protein kinase RIO3 (Homo sapiens), sequence (O14730 whole entry): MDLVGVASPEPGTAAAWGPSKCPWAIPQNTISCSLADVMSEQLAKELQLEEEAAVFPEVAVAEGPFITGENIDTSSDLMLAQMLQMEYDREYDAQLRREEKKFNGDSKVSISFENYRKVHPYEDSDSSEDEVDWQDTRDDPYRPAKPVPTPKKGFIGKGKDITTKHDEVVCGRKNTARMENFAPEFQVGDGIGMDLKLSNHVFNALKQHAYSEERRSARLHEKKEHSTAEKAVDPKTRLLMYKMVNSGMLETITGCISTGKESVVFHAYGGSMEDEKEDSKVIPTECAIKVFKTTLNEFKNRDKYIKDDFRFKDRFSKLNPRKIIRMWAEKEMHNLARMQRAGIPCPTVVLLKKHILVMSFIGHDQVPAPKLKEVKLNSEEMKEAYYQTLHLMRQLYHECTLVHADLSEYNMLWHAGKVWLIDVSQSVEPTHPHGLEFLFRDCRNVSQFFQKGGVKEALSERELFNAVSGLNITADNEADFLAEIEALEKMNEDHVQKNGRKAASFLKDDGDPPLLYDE

[13] = molecular target: Serine/threonine-protein kinase SIK1 (Homo sapiens) (UniProt P57059); assay: Inhibition of SIK (unknown origin) at 1 uM by Ambit Kinomescan binding assay relative to control
[14] = molecular target: T2, Phosphatidylinositol 5-phosphate 4-kinase type-2 gamma (Homo sapiens) (UniProt Q8TBX8); assay: Inhibition of PIP4K2C ATP labeling site harbouring TLVIKEVSSEDIADMHSNLSNYHQYIVK in human A-375 cells at 0.5 uM by KiNativ Profiling analysis relative to control; format: cell-based
T2 sequence (whole entry): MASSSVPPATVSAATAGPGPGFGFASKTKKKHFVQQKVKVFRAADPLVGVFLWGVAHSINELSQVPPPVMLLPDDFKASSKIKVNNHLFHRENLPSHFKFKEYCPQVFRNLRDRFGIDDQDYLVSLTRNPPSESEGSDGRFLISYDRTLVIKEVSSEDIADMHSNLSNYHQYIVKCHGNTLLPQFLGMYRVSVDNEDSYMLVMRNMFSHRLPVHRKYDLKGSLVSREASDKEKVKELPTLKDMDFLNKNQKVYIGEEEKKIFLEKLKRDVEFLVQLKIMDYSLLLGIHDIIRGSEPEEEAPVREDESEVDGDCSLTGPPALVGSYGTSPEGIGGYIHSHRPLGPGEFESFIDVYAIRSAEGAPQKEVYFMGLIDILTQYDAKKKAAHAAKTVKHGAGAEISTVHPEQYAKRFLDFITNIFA

[15] = molecular target: Dual specificity mitogen-activated protein kinase kinase 2 (Homo sapiens) (UniProt P36507); assay: Inhibition of MEK2 (unknown origin) at 1 uM by Ambit Kinomescan binding assay relative to control; values are per cent of control

In the case of `CCN1CCN(Cc2ccc(NC(=O)c3ccc(C)c(Oc4ccnc5[nH]ccc45)c3)cc2C(F)(F)F)CC1`, the inhibition [1] is reported as “inactive”, the inhibition [2] is reported as 6.4% and the inhibition [3] is reported as 0.4%. The inhibition [4] was 1.9%.
For `CNc1cc(Oc2cc(C(=O)Nc3cc(N4CCN(C)CC4)cc(C(F)(F)F)c3)ccc2C)ncn1`, the inhibition at 1 µM [5] was 0.5%, the inhibition [6] was 19.4% and the inhibition [7] was 9%. For the same compound, the inhibition [8] was 22.6% and the inhibition [9] was -1%.
With `CCN1CCN(Cc2ccc(NC(=O)c3ccc(C)c(/C=C/c4cnc5[nH]ccc5c4OC)c3)cc2C(F)(F)F)CC1` the inhibition [10] was 77%, the inhibition [11] was 0.1% and the inhibition [12] was 27%. The inhibition [13] was 2.1%, the inhibition [14] was 5.9% and the residual activity [15] was 74%.
